Common to all, as to format: cell-based
One assay deals with B.subtilis. Briefly: minimum inhibitory concentration (MIC) in agar, B.subtilis. Particulars: Bacillus subtilis. The procedure: (§1) The minimum concentrations of this compound required to inhibit growth of five typical Gram-positive bacteria are tabulated below.
(§2) The minimum inhibitory concentrations (MIC) of the free acid (XIV) required to inhibit the growth of five typical Gram-positive bacteria are tabulated below:
(§3) t-Butyl 3-ethyl-7-(2-thienylacetamido)-3-cephem-4-carboxylate (23 mg) was treated with trifluoracetic acid at room temperature for 1 hour. The excess trifluoroacetic acid was distilled off azeotropically with dry benzene to give the free acid (XVII) as a gum (17 mg) .nu.max (CHCl3) 1770, 1705, 1680 cm^^-1 The minimum inhibitory concentrations of this compound required to inhibit the growth of five typical Gram-positive bacteria are tabulated below:
(§4) The cephem ester (XX) (28 mg) was dissolved in trifluoroacetic acid (0.8 ml) and allowed to stand at room temperature for 30 min.

A further assay has as its system Staph.aureus Oxford. Briefly: minimum inhibitory concentration (MIC) in agar, Staph.aureus Oxford. The following applies: Staphylococcus aureus. The procedure:
as §1, §2, §3, §4

For another assay, the system named is Staph.aureus Russell. Briefly: minimum inhibitory concentration (MIC) in agar, Staph.aureus Russell. Particulars: Staphylococcus aureus. As for the experimental part:
as §1, §2, §3, §4

The test system of another assay is β-haemolytic Strep.CN10. In words: minimum inhibitory concentration (MIC) in agar, β-haemolytic Strep.CN10. As for the experimental part: as §1, §2, §3, §4
In another assay the test system is Strep.pneumoniae CN33. Briefly: minimum inhibitory concentration (MIC) in agar, Strep.pneumoniae CN33. The following applies: Streptococcus pneumoniae. The procedure:
as §1, §2, §3, §4

Values after ≈ are worked out from the molar mass of the structure shown.

For orientation: MIC means the lowest concentration found to suppress growth. Consider `COC(=O)C1=C(Cc2ccccc2)CS[C@@H]2C(NC(=O)COc3ccccc3)C(=O)N12` (stereo partly shown) [II, Methyl 3-benzyl-7-phenoxyacetamido-3-cephem-4-carboxylate], for which the MIC against B.subtilis was found to be 1.95 µg/mL (≈ 4.45 µM); in the assay on Staph.aureus Oxford, 0.98 µg/mL (≈ 2.23 µM); in the assay with Staph.aureus Russell, 15.6 µg/mL (≈ 35.6 µM); with β-haemolytic Strep.CN10 it was 1.95 µg/mL (≈ 4.45 µM); with Strep.pneumoniae CN33, 0.98 µg/mL (≈ 2.23 µM).
`N[C@@H](C(=O)NC1C(=O)N2C(C(=O)O)=C(Cc3ccccc3)CS[C@H]12)c1ccccc1` (stereo partly drawn) [VII; R = H, 3-Benzyl-7-[D-α-aminophenylacetamido]-3-cephem-4-carboxylic acid]: the MIC in the assay on B.subtilis is 0.25 µg/mL (≈ 0.59 µM); in the assay on Staph.aureus Oxford, 0.1 µg/mL (≈ 0.236 µM); against Staph.aureus Russell, 2.5 µg/mL (≈ 5.9 µM); against β-haemolytic Strep.CN10, 0.1 µg/mL (≈ 0.236 µM); against Strep.pneumoniae CN33, 1 µg/mL (≈ 2.36 µM).
In the case of `O=C(Cc1cccs1)NC1C(=O)N2C(C(=O)O)=C(Cc3ccccc3)CSC12` (stereo not shown) [VI], the MIC with B.subtilis was found to be 0.2 µg/mL (≈ 0.482 µM); with Staph.aureus Oxford it was 0.05 µg/mL (≈ 0.121 µM); with Staph.aureus Russell, 10 µg/mL (≈ 24.1 µM); in the assay on β-haemolytic Strep.CN10 it was 0.2 µg/mL (≈ 0.482 µM); in the assay on Strep.pneumoniae CN33, 0.2 µg/mL (≈ 0.482 µM).
Take `O=C(Cc1cccs1)NC1C(=O)N2C(C(=O)O)=C(Cc3ccc(F)cc3)CS[C@H]12` (stereo partly shown) [XII, 3-p-fluorobenzyl-7-(2-thienylacetamido)-3-cephem-4-carboxylic acid]: the MIC against B.subtilis came out at 0.5 µg/mL (≈ 1.16 µM); with Staph.aureus Oxford it was 0.25 µg/mL (≈ 0.578 µM); in the assay on Staph.aureus Russell it was 10 µg/mL (≈ 23.1 µM); in the assay with β-haemolytic Strep.CN10, 0.25 µg/mL (≈ 0.578 µM); against Strep.pneumoniae CN33, 0.25 µg/mL (≈ 0.578 µM).
As for `O=C(O)CSCC(=O)NC1C(=O)N2C(C(=O)O)=C(Cc3ccc(F)cc3)CSC12` (stereo not shown) [XIV, 3-p-fluorobenzyl-7-carboxymethylthioacetamido-3-cephem-4-carboxylate], the MIC in the assay on B.subtilis worked out at 100 µg/mL (≈ 227 µM); in the assay on Staph.aureus Oxford, 5 µg/mL (≈ 11.4 µM); in the assay on Staph.aureus Russell it was 50 µg/mL (≈ 114 µM); in the assay on β-haemolytic Strep.CN10, 25 µg/mL (≈ 56.8 µM); in the assay on Strep.pneumoniae CN33 it was 25 µg/mL (≈ 56.8 µM).
In the case of `CCC1=C(C(=O)O)N2C(=O)C(NC(=O)Cc3cccs3)[C@H]2SC1` (stereo partly shown) [XVII, 3-ethyl-7-(2-thienylacetamido)-3-cephem-4-carboxylic acid], the minimal inhibitory concentration (MIC) in the assay on B.subtilis, against Staph.aureus Oxford, in the assay with Staph.aureus Russell, in the assay on β-haemolytic Strep.CN10 and in the assay with Strep.pneumoniae CN33 was 2.5 µg/mL (≈ 7.09 µM) each time.
Turning to `O=C(Cc1cccs1)NC1C(=O)N2C(C(=O)O)=C(CC3CCCCO3)CS[C@H]12` (stereo partly shown) [XXII, 3-(2-tetrahydropyranylmethyl)-7-(2-thienylacetamido)-3-cephem-4-carboxylicacid], the MIC against B.subtilis stood at 0.5 µg/mL (≈ 1.18 µM); against Staph.aureus Oxford, 0.25 µg/mL (≈ 0.592 µM); with Staph.aureus Russell, 10 µg/mL (≈ 23.7 µM); in the assay on β-haemolytic Strep.CN10, 0.25 µg/mL (≈ 0.592 µM); in the assay on Strep.pneumoniae CN33, 0.25 µg/mL (≈ 0.592 µM).
Turning to `O=C(Cc1cccs1)NC1C(=O)N2C(C(=O)O)=C(CCc3ccccc3)CS[C@H]12` (stereo partly drawn) [XXVI, 3-β-phenylethyl-7-(2-thienylacetamido) -3-cephem-4-carboxylic acid], the MIC with B.subtilis was found to be 0.05 µg/mL (≈ 0.117 µM); with Staph.aureus Oxford it was 0.05 µg/mL (≈ 0.117 µM); against Staph.aureus Russell it was 1.5 µg/mL (≈ 3.5 µM); with β-haemolytic Strep.CN10 it was 0.02 µg/mL (≈ 0.0467 µM); in the assay with Strep.pneumoniae CN33, 0.15 µg/mL (≈ 0.35 µM).
